This note sets out measurements from patent US10351578B2, “Heterocyclic-substituted pyridinopyrimidinone derivative as CDK inhibitor and use thereof” (Shanghai Xunhe Pharmaceutical Technology Co. Ltd., priority 2016, dated 2019).

Test [1] deals with T1, CDK4 protein kinase (GST-CDK4(1-303 end)) (Homo sapiens, UniProt P11802).
T1 construct: GST-CDK4(1-303 end); GST (N)
The test can be described thus: CDK4 protein kinase activity, Caliper mobility shift assay. It is filed as biochemical. The conditions noted are these: substrate Peptide FAM-P8, 28° C. for 3 h. How it is done:
(§1) Activity Assay: The CDK4 protein kinase activity was measured using the Caliper mobility shift assay (see J. Biomol. Screen, 2009, PP31). The test compound was dissolved in DMSO and diluted with a kinase buffer solution (20 mM HEPES-pH 7.5, 0.01% Triton X-100, 10 mM MgCl2, 2 mM DTT) and 5 μL of the compound at 5-fold final concentration of reaction dissolved in 10% DMSO was added in a 384-well plate. The compound-free control well was 5 μL of 10% DMSO, and the no-activity control well was 5 μL of kinase buffer. 10 μL of a 2.5-fold diluted CDK4 enzyme solution (GST-CDK4(1-303 end)) was added and incubated at room temperature for 10 min, and then 10 μL of the 2.5-fold diluted substrate solution Peptide FAM-P8 was added. The reaction was stopped by adding 25 μL of stop solution after incubation at 28° C. for 3 h, and the conversion rate data was read on a Caliper EZ Reader II (Caliper Life Sciences) and the conversion rate was converted to inhibition rate data according to above method. Among them, the inhibition rate %=(max−conversion)/(max−min)×100%.

Test [2] concerns the target T2, CDK6 protein kinase (GST-CDK6(1-326 end)) (Homo sapiens, UniProt Q00534).
T2 construct: GST-CDK6(1-326 end); GST (N)
The test can be described thus: CDK6 protein kinase activity, Caliper mobility shift assay. It is filed as biochemical. The conditions noted are these: substrate Peptide FAM-P8, 28° C. for 3 h. How it is done: as §1, with “CDK6” for “CDK4”, “(GST-CDK6(1-326” for “(GST-CDK4(1-303”

pIC50: −log10 of the molar value.

T2 sequence (Q00534 whole entry): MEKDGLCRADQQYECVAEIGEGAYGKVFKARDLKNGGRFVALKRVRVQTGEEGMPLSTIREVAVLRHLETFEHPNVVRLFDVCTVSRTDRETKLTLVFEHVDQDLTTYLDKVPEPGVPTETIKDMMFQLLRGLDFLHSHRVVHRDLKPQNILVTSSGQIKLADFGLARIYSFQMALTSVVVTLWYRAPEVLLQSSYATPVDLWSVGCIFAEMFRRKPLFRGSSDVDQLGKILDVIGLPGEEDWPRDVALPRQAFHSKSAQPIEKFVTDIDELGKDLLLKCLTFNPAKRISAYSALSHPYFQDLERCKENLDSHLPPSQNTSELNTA
T2 sequence (P30281 whole entry partner): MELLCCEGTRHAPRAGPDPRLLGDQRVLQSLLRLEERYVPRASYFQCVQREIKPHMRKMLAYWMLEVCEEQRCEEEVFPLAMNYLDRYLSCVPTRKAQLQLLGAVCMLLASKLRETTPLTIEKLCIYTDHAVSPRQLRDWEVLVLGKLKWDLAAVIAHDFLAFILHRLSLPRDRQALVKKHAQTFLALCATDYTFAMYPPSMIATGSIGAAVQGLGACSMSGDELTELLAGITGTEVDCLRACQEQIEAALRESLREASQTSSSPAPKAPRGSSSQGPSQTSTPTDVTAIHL
T1 sequence (P11802 whole entry): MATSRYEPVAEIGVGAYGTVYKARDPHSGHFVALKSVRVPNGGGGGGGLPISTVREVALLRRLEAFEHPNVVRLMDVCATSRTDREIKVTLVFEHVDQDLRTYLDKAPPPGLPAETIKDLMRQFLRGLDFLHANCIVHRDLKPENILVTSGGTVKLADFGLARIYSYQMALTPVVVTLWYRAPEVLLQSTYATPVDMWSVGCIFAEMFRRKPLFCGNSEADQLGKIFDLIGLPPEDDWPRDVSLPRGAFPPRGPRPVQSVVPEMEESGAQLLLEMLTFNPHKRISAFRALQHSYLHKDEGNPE
T1 sequence (P30281 whole entry partner): as the sequence (P30281 whole entry partner) above

As for “8′-cyclopentyl-2′-(5-(4-ethyl-1-piperazinyl)-pyridin-2-amino)spiro[cycloprop-1,6′-pyrimido[5,4-b][1,4]oxazin]-7′(8′H)-one [Compound I-25]”, the pIC50 in test [1] and in test [2] was at least 7.70 each time.

On to `CC(C)N1C(=O)C(C)(C)Oc2cnc(Nc3ccc(N4CCNCC4)cn3)nc21` [Compound I-1, 6,6-Dimethyl-8-isopropyl-2-(5-(1-piperazinyl)-pyridin-2-amino)-6H-pyrimido[5,4-b][1,4]oxazin-7(8H)-one], for which the pIC50 in test [1] and in test [2] was at least 7.70 in each case.

For `CC1(C)Oc2cnc(Nc3ccc(N4CCNCC4)cn3)nc2N(C2CCCC2)C1=O` [Compound I-2, 6,6-Dimethyl-8-cyclopentyl-2-(5-(1-piperazinyl)-pyridin-2-amino)-6H-pyrimido[5,4-b][1,4]oxazin-7(8H)-one], the pIC50 in test [1] and in test [2] was at least 7.70 each time.

As for `CCN1CCN(Cc2ccc(Nc3ncc4c(n3)N(C3CCCC3)C(=O)C(C)(C)O4)nc2)CC1` [Compound I-3, 6,6-Dimethyl-8-cyclopentyl-2-(5-(4-ethyl-1-piperazinyl)methyl-pyridin-2-amino)-6H-pyrimido[5,4-b][1,4]oxazin-7(8H)-one], the pIC50 in test [1] and in test [2] was at least 7.70 in each case.

As to `O=C1N(C2CCCC2)c2nc(Nc3ccc(N4CCNCC4)cn3)ncc2OC12CC2` [Compound I-4, 8′-cyclopentyl-2′-(5-(1-piperazinyl)-pyridin-2-amino)spiro[cycloprop-1,6′-pyrimido[5,4-b][1,4]oxazin]-7′(8′H)-one], the pIC50 (in general, the IC50 on a negative log10 scale, so that one unit is a factor of ten) in test [1] was at least 7.70; in test [2] it was 7.00 to 7.70.

As for `O=C1N(C2CCCC2)c2nc(Nc3ccc(N4CCNCC4)cn3)ncc2OC12CCC2` [Compound I-5, 8′-cyclopentyl-2′-(5-(1-piperazinyl)-pyridin-2-amino)spiro[cyclobut-1,6′-pyrimido[5,4-b][1,4]oxazin]-7′(8′H)-one], the pIC50 was at least 7.70 in test [1] and 7.00 to 7.70 in test [2].

As for `O=C1N(C2CCCC2)c2nc(Nc3ccc(N4CCNCC4)cn3)ncc2OC12CCCC2` [Compound I-6, 8′-cyclopentyl-2′-(5-(1-piperazinyl)-pyridin-2-amino)spiro[cyclopenta-1,6′-pyrimido[5,4-b][1,4]oxazin]-7′(8′H)-one], the pIC50 in test [1] was at least 7.70; in test [2] it was 7.00 to 7.70.

For the compound `O=C1N(C2CCCC2)c2nc(Nc3ccc(N4CCNCC4)cn3)ncc2OC12CCCCC2` [Compound I-7, 8′-cyclopentyl-2′-(5-(1-piperazinyl)-pyridin-2-amino)spiro[cyclohex-1,6′-pyrimido[5,4-b][1,4]oxazin]-7′(8′H)-one], the negative logarithm of the IC50 (pIC50) in test [1] and in test [2] was at least 7.70 throughout.

For the compound `O=C1N(C2CCCC2)c2nc(Nc3ccc(N4CCNCC4)cn3)ncc2OC12CCCCCC2` [Compound I-8, 8′-cyclopentyl-2′-(5-(1-piperazinyl)-pyridin-2-amino)spiro[cyclohepta-1,6′-pyrimido[5,4-b][1,4]oxazin]-7′(8′H)-one], the pIC50 in test [1] was at least 7.70; in test [2], 7.00 to 7.70.

Consider `CC(=O)C1Oc2cnc(Nc3ccc(N4CCNCC4)cn3)nc2N(C2CCCC2)C1=O` (stereo not drawn) [Compound I-9, 6-acetyl-8-cyclopentyl-2-(5-(1-piperazinyl)-pyridin-2-amino)-6H-pyrimido[5,4-b][1,4]oxazin-7(8H)-one], for which the pIC50 in test [1] is at least 7.70; in test [2] it was 7.00 to 7.70.

In the case of `N#CC1Oc2cnc(Nc3ccc(N4CCNCC4)cn3)nc2N(C2CCCC2)C1=O` (stereo not drawn) [Compound I-10, 6-cyano-8-cyclopentyl-2-(5-(1-piperazinyl)-pyridin-2-amino)-6H-pyrimido[5,4-b][1,4]oxazin-7(8H)-one], the pIC50 is at least 7.70 in test [1] and 6.30 to 7.00 in test [2].

On to `O=C1C(C(F)(F)F)Oc2cnc(Nc3ccc(N4CCNCC4)cn3)nc2N1C1CCCC1` (stereo not drawn) [Compound I-11, 6-trifluoromethyl-8-cyclopentyl-2-(5-(1-piperazinyl)-pyridin-2-amino)-6H-pyrimido[5,4-b][1,4]oxazin-7(8H)-one], for which the pIC50 was at least 7.70 in test [1] and 7.00 to 7.70 in test [2].

As to `O=C1N(C2CCCC2)c2nc(Nc3ccc(N4CCNCC4)cn3)ncc2OC1(F)F` [Compound I-12, 6,6-difluoro-8-cyclopentyl-2-(5-(1-piperazinyl)-pyridin-2-amino)-6H-pyrimido[5,4-b][1,4]oxazin-7(8H)-one], the pIC50 was at least 7.70 in test [1] and 7.00 to 7.70 in test [2].

Consider `O=C1C(C2CC2)Oc2cnc(Nc3ccc(N4CCNCC4)cn3)nc2N1C1CCCC1` (stereo not drawn) [Compound I-13, 6-cyclopropyl-8-cyclopentyl-2-(5-(1-piperazinyl)-pyridin-2-amino)-6H-pyrimido[5,4-b][1,4]oxazin-7(8H)-one], for which the pIC50 in test [1] and in test [2] was at least 7.70 each time.

With `CCN1CCN(Cc2ccc(Nc3ncc4c(n3)N(C3CCCC3)C(=O)C(C3CCC3)O4)nc2)CC1` (stereo not drawn) [Compound I-14, 6-cyclobutyl-8-cyclopentyl-2-(5-(4-ethyl-1-piperazinyl)methyl-pyridin-2-amino)-6H-pyrimido[5,4-b][1,4]oxazin-7(8H)-one], the pIC50 in test [1] and in test [2] was at least 7.70 in each case.

Consider `CCN1CCN(Cc2ccc(Nc3ncc4c(n3)N(C)C(=O)C(C(C)C)O4)nc2)CC1` (stereo not drawn) [Compound I-15, 6-isopropyl-8-methyl-2-(5-(4-ethyl-1-piperazinyl)methyl-pyridin-2-amino)-6H-pyrimido[5,4-b][1,4]oxazin-7(8H)-one], for which the pIC50 in test [1] is at least 7.70; in test [2], 7.00 to 7.70.

As to `CCN1C(=O)C(C)(CC)Oc2cnc(Nc3ccc(CN4CCN(C)CC4)cn3)nc21` (stereo not drawn) [Compound I-16, 6-methyl-6,8-diethyl-2-(5-(4-methyl-1-piperazinyl)methyl-pyridin-2-amino)-6H-pyrimido[5,4-b][1,4]oxazin-7(8H)-one], the pIC50 in test [1] and in test [2] was at least 7.70 each time.

`CCC(C)N1C(=O)C(C2CCCC2)Sc2cnc(Nc3ccc(CN4CCNCC4)cn3)nc21` (stereo not drawn) [Compound I-17, 6-cyclopentyl-8-sec-butyl-2-(5-(1-piperazinyl)methyl-pyridin-2-amino)-6H-pyrimido[5,4-b][1,4]thiazin-7(8H)-one]: the pIC50 in test [1] is at least 7.70; in test [2], under 6.30.

Regarding `CCC(C)(C)N1C(=O)C(C2CCCCC2)Oc2cnc(Nc3ccc(CN4CCN(C5CC5)CC4)cn3)nc21` (stereo not drawn) [Compound I-18, 6-cyclohexyl-8-tert-amyl-2-(5-(4-cyclopropyl-1-piperazinyl)methyl-pyridin-2-amino)-6H-pyrimido[5,4-b][1,4]oxazin-7(8H)-one], the pIC50 in test [1] and in test [2] was at least 7.70 each time.

With `CCCN1CCN(Cc2ccc(Nc3ncc4c(n3)N(C(C)C(C)C)C(=O)C(C3CCCCCC3)S4)nc2)CC1` (stereo not drawn) [Compound I-19, 6-cycloheptyl-8-(3-methyl-2-butyl)-2-(5-(4-n-propyl-1-piperazinyl)methyl-pyridine-2-amino)-6H-pyrimido[5,4-b][1,4]thiazin-7(8H)-one], the values for the pIC50 in test [1] and in test [2] were at least 7.70 and 7.00 to 7.70, respectively.

Turning to `CC1(C)Oc2cnc(Nc3ccc(N4CCN(C5CCC5)CC4)cn3)nc2N(C2CCCC2)C1=O` [Compound I-20, 6,6-dimethyl-8-cyclopentyl-2-(5-(4-cyclobutyl-1-piperazinyl)-pyridin-2-amino)-6H-pyrimido[5,4-b][1,4]oxazin-7(8H)-one], the pIC50 in test [1] and in test [2] was at least 7.70 each time.

Take `CC1(C)Oc2cnc(Nc3ccc(N4CCN(C5CCCC5)CC4)cn3)nc2N(C2CCCC2)C1=O` [Compound I-21, 6,6-dimethyl-8-cyclopentyl-2-(5-(4-cyclopentyl-1-piperazinyl)-pyridin-2-amino)-6H-pyrimido[5,4-b][1,4]oxazin-7(8H)-one]: the pIC50 was at least 7.70 in test [1] and 7.00 to 7.70 in test [2].

As to `CC1(C)Oc2cnc(Nc3ccc(N4CCN(C5CCCCC5)CC4)cn3)nc2N(C2CCCC2)C1=O` [Compound I-22, 6,6-dimethyl-8-cyclopentyl-2-(5-(4-cyclohexyl-1-piperazinyl)-pyridin-2-amino)-6H-pyrimido[5,4-b][1,4]oxazin-7(8H)-one], the pIC50 in test [1] and in test [2] was at least 7.70 throughout.

As to `CC1(C)Sc2cnc(Nc3ccc(N4CCN(C5CCCCCC5)CC4)cn3)nc2N(C2CCCC2)C1=O` [Compound I-23, 6,6-dimethyl-8-cyclopentyl-2-(5-(4-cycloheptyl-1-piperazinyl)-pyridin-2-amino)-6H-pyrimido[5,4-b][1,4]thiazin-7(8H)-one], the pIC50 in test [1] and in test [2] was at least 7.70 throughout.
